Measurements published in ChEMBL document CHEMBL1129720, “(S)-4-amino-5-chloro-3-iodo-2-methoxy-N-(1-azabicyclo[2.2.2]oct-3-yl)benzamide (TRIZAC), a high-affinity ligand for the 5-HT-3 receptor” (Bioorg Med Chem Lett, 1996).

Key:
[1] = biological target: T1, 5-hydroxytryptamine receptor 3A (Rattus norvegicus, UniProt P35563); experiment: Compound was tested for its binding affinity towards 5-hydroxytryptamine 3 receptor in whole rat brain using (S)-[125I]-zacopride as the radioligand.
T1 sequence (P35563 whole entry): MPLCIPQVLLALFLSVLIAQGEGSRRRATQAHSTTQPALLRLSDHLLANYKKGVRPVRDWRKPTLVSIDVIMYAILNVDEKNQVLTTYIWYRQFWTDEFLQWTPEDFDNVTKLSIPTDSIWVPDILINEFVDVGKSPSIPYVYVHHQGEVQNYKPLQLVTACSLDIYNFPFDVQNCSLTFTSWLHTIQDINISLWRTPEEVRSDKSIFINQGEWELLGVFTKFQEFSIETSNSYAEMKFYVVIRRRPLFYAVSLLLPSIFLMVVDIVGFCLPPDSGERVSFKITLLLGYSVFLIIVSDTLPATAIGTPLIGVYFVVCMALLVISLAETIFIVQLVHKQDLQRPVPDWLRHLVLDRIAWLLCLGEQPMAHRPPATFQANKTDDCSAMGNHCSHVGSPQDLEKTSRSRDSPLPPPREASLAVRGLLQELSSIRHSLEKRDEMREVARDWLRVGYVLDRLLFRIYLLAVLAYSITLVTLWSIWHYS

[2] = biological target: T1, 5-hydroxytryptamine receptor 3A; experiment: Compound was tested for its binding affinity towards 5-hydroxytryptamine 3 receptor in whole rat brain using [125I]DAIZAC as the radioligand.
[3] = biological target: T1, 5-hydroxytryptamine receptor 3A; experiment: Compound was tested in vitro for its antagonistic activity against 5-hydroxytryptamine 3 receptor in rat CNS.; type: functional
[4] = Apparent lipophilicity value of the compound.; type: physicochemical; details: octanol/water
[5] = biological target: T1, 5-hydroxytryptamine receptor 3A; experiment: Compound was tested for its binding affinity towards 5-hydroxytryptamine 3 receptor
[6] = biological target: T1, 5-hydroxytryptamine receptor 3A; experiment: Compound was tested for its binding affinity towards 5-HT-3 receptor in whole rat brain using (S)-[125I]-zacopride as the radioligand.
[7] = biological target: T1, 5-hydroxytryptamine receptor 3A; experiment: Compound was tested for its antagonistic activity against 5-hydroxytryptamine 3 receptor in rat brain using [3H]zacopride as the radioligand.; type: functional, tissue-based
[8] = biological target: T1, 5-hydroxytryptamine receptor 3A; experiment: Compound was tested in vitro for its antagonistic activity against 5-hydroxytryptamine 3 receptor; type: functional

For `COc1cc(N)c(I)cc1C(=O)NC1CN2CCC1CC2` (centres undefined), the Ki [1] was 1.07 nM, the Ki [2] was 1.37 nM and the Kd [3] was 2.6 nM.
Work on `COc1c(C(=O)N[C@@H]2CN3CCC2CC3)cc(Cl)c(N)c1I` yielded a logD [4] of 2.12, a Ki [2] of 0.075 nM and a Ki [5] of 0.05 nM. It also gave a Ki [6] of 0.052 nM.
Work on `COc1cc(N)c(Cl)cc1C(=O)NC1CN2CCC1CC2` (centres undefined) [ZACOPRIDE] yielded a Kd [7] of 0.6 nM.
With `COc1c(I)cc(Cl)cc1C(=O)N[C@@H]1CN2CCC1CC2` the Kd [8] was 0.15 nM.
